Results from patent US20230278996A1, “YKL-40 INHIBITORS AND THEIR THERAPEUTIC APPLICATIONS” (Molecure S.A., priority 2022, published 2023).
Where a name gives a salt, the structure may show the parent alone.

Target: YKL-40 (Homo sapiens (Human), UniProt P36222)
Assay: YKL-40:4 assay, competitive chitin binding site AlphaScreen
Conditions: competition with biotinylated compound 4 (20 nM), YKL-40-histag 2.5 nM

Chain of YKL-40 (P36222 22-383): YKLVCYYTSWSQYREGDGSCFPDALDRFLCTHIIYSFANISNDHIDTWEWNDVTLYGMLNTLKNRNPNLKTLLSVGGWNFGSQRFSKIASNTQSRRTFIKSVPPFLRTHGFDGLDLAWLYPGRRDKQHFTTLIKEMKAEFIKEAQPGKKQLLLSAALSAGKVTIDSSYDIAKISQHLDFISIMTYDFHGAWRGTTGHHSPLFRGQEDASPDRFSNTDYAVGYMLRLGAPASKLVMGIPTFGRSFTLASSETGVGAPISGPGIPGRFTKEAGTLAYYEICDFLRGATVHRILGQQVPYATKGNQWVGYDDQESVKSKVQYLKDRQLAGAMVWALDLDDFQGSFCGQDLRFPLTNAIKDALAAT

SMILES	IC50
CC1CC(N2C[C@H](C)OC[C@@H]2Cc2ccc(Cl)cc2)CCN1c1cc(Cl)ccn1 (single isomer, unassigned) [Example 31, 2,2,2-trifluoroacetate]	1000 to 10000 nM
CC1CC(N2C[C@H](C)OC[C@@H]2Cc2ccc(Cl)cc2)CCN1c1cc(Cl)ccn1 (single isomer, unassigned) [Example 32, 2,2,2-trifluoroacetate]	< 100 nM
CC(C)C[C@H]1CN(C2CCN(c3ccccn3)CC2)[C@@H](Cc2ccc(Cl)cc2)CN1C(=O)OC(C)(C)C [Example 2e, tert-butyl (2S,5S)-5-(4-chlorobenzyl)-2-isobutyl-4-(1-(pyridin-2-yl)piperidin-4-yl)piperazine-1-carboxylate]	> 100000 nM
COCCOCCOCCOCCOCCOCCOCCOCCOCCOCCOCCOCCC(=O)OC[C@H]1CN(C2CCN(c3ccccn3)CC2)[C@@H](Cc2ccc(Cl)cc2)CO1 [Example 7, ((2R,5S)-5-(4-chlorobenzyl)-4-(1-(pyridin-2-yl)piperidin-4-yl)morpholin-2-yl)methyl 2,5,8,11,14,17,20,23,26,29,32,35-dodecaoxaoctatriacontan-38-oate 2,2,2-trifluoroacetate]	100 to 1000 nM
C[C@H]1CN(C2CCN(C(=O)OC(C)(C)C)CC2)[C@@H](Cc2ccc(Cl)cc2)CO1 [Example 8d, tert-butyl 4-((2S,5S)-5-(4-chlorobenzyl)-2-methylmorpholino)piperidine-1-carboxylate]	> 100000 nM
C[C@H]1CN(C2CCN(c3ccc(F)cn3)CC2)[C@@H](Cc2ccc(Cl)cc2)CO1 [Example 9, (2S,5S)-5-(4-chlorobenzyl)-4-(1-(5-fluoropyridin-2-yl)piperidin-4-yl)-2-methylmorpholine 2,2,2-trifluoroacetate]	1000 to 10000 nM
C[C@H]1CN(C2CCN(c3ccc(Cl)cn3)CC2)[C@@H](Cc2ccc(Cl)cc2)CO1 [Example 11, (2S,5S)-5-(4-chlorobenzyl)-4-(1-(5-chloropyridin-2-yl)piperidin-4-yl)-2-methylmorpholine 2,2,2-trifluoroacetate]	100 to 1000 nM
C[C@H]1CN(C2CCN(c3cnccn3)CC2)[C@@H](Cc2ccc(Cl)cc2)CO1 [Example 12, (2S,5S)-5-(4-chlorobenzyl)-2-methyl-4-(1-(pyrazin-2-yl)piperidin-4-yl)morpholine 2,2,2-trifluoroacetate]	1000 to 10000 nM
C[C@H]1CN(C2CCN(c3cccc(Cl)n3)CC2)[C@@H](Cc2ccc(Cl)cc2)CO1 [Example 14, (2S,5S)-5-(4-chlorobenzyl)-4-(1-(6-chloropyridin-2-yl)piperidin-4-yl)-2-methylmorpholine 2,2,2-trifluoroacetate]	1000 to 10000 nM
C[C@H]1CN(C2CCN(c3ccnc(F)c3)CC2)[C@@H](Cc2ccc(Cl)cc2)CO1 [Example 15, (2S,5S)-5-(4-chlorobenzyl)-4-(1-(2-fluoropyridin-4-yl)piperidin-4-yl)-2-methylmorpholine 2,2,2-trifluoroacetate]	1000 to 10000 nM
Cc1cccnc1N1CCC(N2C[C@H](C)OC[C@@H]2Cc2ccc(Cl)cc2)CC1 [Example 16, (2S,5S)-5-(4-chlorobenzyl)-2-methyl-4-(1-(3-methylpyridin-2-yl)piperidin-4-yl)morpholine 2,2,2-trifluoroacetate]	> 100000 nM
C[C@H]1CN(C2CCN(c3cccc(C#N)n3)CC2)[C@@H](Cc2ccc(Cl)cc2)CO1 [Example 18, 6-(4-((2S,5S)-5-(4-chlorobenzyl)-2-methylmorpholino)piperidin-1-yl)picolinonitrile 2,2,2-trifluoroacetate]	> 100000 nM
C[C@H]1CN(C2CCN(c3ccc(C#N)cn3)CC2)[C@@H](Cc2ccc(Cl)cc2)CO1 [Example 19, 6-(4-((2S,5S)-5-(4-chlorobenzyl)-2-methylmorpholino)piperidin-1-yl)nicotinonitrile 2,2,2-trifluoroacetate]	> 100000 nM
C[C@H]1CN(C2CCN(c3cc(C(F)(F)F)ccn3)CC2)[C@@H](Cc2ccc(Cl)cc2)CO1 [Example 20, (2S,5S)-5-(4-chlorobenzyl)-2-methyl-4-(1-(4-(trifluoromethyl)pyridin-2-yl)piperidin-4-yl)morpholine 2,2,2-trifluoroacetate]	1000 to 10000 nM
C[C@H]1CN(C2CCN(c3ncccc3C#N)CC2)[C@@H](Cc2ccc(Cl)cc2)CO1 [Example 22, 2-(4-((2S,5S)-5-(4-chlorobenzyl)-2-methylmorpholino)piperidin-1-yl)nicotinonitrile 2,2,2-trifluoroacetate]	100 to 1000 nM
C[C@H]1CN(C2CCN(c3ncccc3Cl)CC2)[C@@H](Cc2ccc(Cl)cc2)CO1 [Example 23, (2S,5S)-5-(4-chlorobenzyl)-4-(1-(3-chloropyridin-2-yl)piperidin-4-yl)-2-methylmorpholine 2,2,2-trifluoroacetate]	1000 to 10000 nM
C[C@H]1CN(C2CCN(c3cc(F)ncn3)CC2)[C@@H](Cc2ccc(Cl)cc2)CO1 [Example 24, (2S,5S)-5-(4-chlorobenzyl)-4-(1-(6-fluoropyrimidin-4-yl)piperidin-4-yl)-2-methylmorpholine 2,2,2-trifluoroacetate]	> 100000 nM

SMILES	IC50
C[C@H]1CN(C2CCN(c3ncc(F)cc3F)CC2)[C@@H](Cc2ccc(Cl)cc2)CO1 [Example 25, (2S,5S)-5-(4-chlorobenzyl)-4-(1-(3,5-difluoropyridin-2-yl)piperidin-4-yl)-2-methylmorpholine 2,2,2-trifluoroacetate]	> 100000 nM
C[C@H]1CN(C2CCN(c3ccncn3)CC2)[C@@H](Cc2ccc(Cl)cc2)CO1 [Example 26, (2S,5S)-5-(4-chlorobenzyl)-2-methyl-4-(1-(pyrimidin-4-yl)piperidin-4-yl)morpholine 2,2,2-trifluoroacetate]	> 100000 nM
C[C@H]1CN(C2CCN(c3cccnc3)CC2)[C@@H](Cc2ccc(Cl)cc2)CO1 [Example 27, (2S,5S)-5-(4-chlorobenzyl)-2-methyl-4-(1-(pyridin-3-yl)piperidin-4-yl)morpholine 2,2,2-trifluoroacetate]	> 100000 nM
C[C@H]1CN(C2CCN(c3ccncc3)CC2)[C@@H](Cc2ccc(Cl)cc2)CO1 [Example 28, (2S,5S)-5-(4-chlorobenzyl)-2-methyl-4-(1-(pyridin-4-yl)piperidin-4-yl)morpholine 2,2,2-trifluoroacetate]	> 100000 nM
COc1ccnc(N2CCC(N3C[C@H](C)OC[C@@H]3Cc3ccc(Cl)cc3)CC2)c1 [Example 29, (2S,5S)-5-(4-chlorobenzyl)-4-(1-(4-methoxypyridin-2-yl)piperidin-4-yl)-2-methylmorpholine 2,2,2-trifluoroacetate]	100 to 1000 nM
Cc1cnnc(N2CCC(N3C[C@H](C)OC[C@@H]3Cc3ccc(Cl)cc3)CC2)c1 [Example 30, (2S,5S)-5-(4-chlorobenzyl)-2-methyl-4-(1-(5-methylpyridazin-3-yl)piperidin-4-yl)morpholine 2,2,2-trifluoroacetate]	1000 to 10000 nM
CC1CC(N2C[C@H](C)OC[C@@H]2Cc2ccc(Cl)cc2)CCN1c1cc(Cl)ccn1 (stereo partly drawn) [Example 33, (2S,5S)-5-(4-chlorobenzyl)-4-(1-(4-chloropyridin-2-yl)-2-methylpiperidin-4-yl)-2-methylmorpholine 2,2,2-trifluoroacetate]	1000 to 10000 nM
CC1CC(N2C[C@H](C)OC[C@@H]2Cc2ccc(Cl)cc2)CCN1c1cc(Cl)ccn1 (stereo partly drawn) [Example 34, (2S,5S)-5-(4-chlorobenzyl)-4-(1-(4-chloropyridin-2-yl)-2-methylpiperidin-4-yl)-2-methylmorpholine 2,2,2-trifluoroacetate]	100 to 1000 nM
C[C@H]1CN(C2CCN(c3ccccc3)CC2)[C@@H](Cc2ccc(Cl)cc2)CO1 [Example 37, (2S,5S)-5-(4-chlorobenzyl)-2-methyl-4-(1-phenylpiperidin-4-yl)morpholine dihydrochloride]	> 100000 nM
Clc1ccc(C[C@H]2CN3CCC[C@H]3CN2C2CCN(c3ccccn3)CC2)cc1 [Example 38, (3S,8aS)-3-(4-chlorobenzyl)-2-(1-(pyridin-2-yl)piperidin-4-yl)octahydropyrrolo[1,2-α]pyrazine 2,2,2-trifluoroacetate]	< 100 nM
Cc1ccnc(N2CCC(N3C[C@H](C)OC[C@@H]3Cc3ccc(Cl)cc3)CC2)n1 [Example 39, (2S,5S)-5-(4-chlorobenzyl)-2-methyl-4-(1-(4-methylpyrimidin-2-yl)piperidin-4-yl)morpholine dihydrochloride]	100 to 1000 nM
O[C@@H]1C[C@H]2CN(C3CCN(c4ncccn4)CC3)[C@@H](Cc3ccc(Cl)cc3)CN2C1 [Example 40, (3S,7R,8aS)-3-(4-chlorobenzyl)-2-(1-(pyrimidin-2-yl)piperidin-4-yl)octahydropyrrolo[1,2-α]pyrazin-7-ol 2,2,2-trifluoroacetate]	100 to 1000 nM
Cc1ccnc(N2CCC(N3C[C@@H]4C[C@@H](O)CN4C[C@@H]3Cc3ccc(Cl)cc3)CC2)n1 [Example 41, (3S,7R,8aS)-3-(4-chlorobenzyl)-2-(1-(4-methylpyrimidin-2-yl)piperidin-4-yl)octahydropyrrolo[1,2-α]pyrazin-7-ol 2,2,2-trifluoroacetate]	100 to 1000 nM
O[C@H]1C[C@H]2CN(C3CCN(c4ncccn4)CC3)[C@@H](Cc3ccc(Cl)cc3)CN2C1 [Example 42, (3S,7S,8aS)-3-(4-chlorobenzyl)-2-(1-(pyrimidin-2-yl)piperidin-4-yl)octahydropyrrolo[1,2-α]pyrazin-7-ol 2,2,2-trifluoroacetate]	100 to 1000 nM
Cc1ccnc(N2CCC(N3C[C@@H]4C[C@H](O)CN4C[C@@H]3Cc3ccc(Cl)cc3)CC2)n1 [Example 43, (3S,7S,8aS)-3-(4-chlorobenzyl)-2-(1-(4-methylpyrimidin-2-yl)piperidin-4-yl)octahydropyrrolo[1,2-α]pyrazin-7-ol 2,2,2-trifluoroacetate]	100 to 1000 nM
C[C@H]1CN(C2CCN(c3ncc(F)cn3)CC2)[C@@H](Cc2ccc(Cl)cc2)CO1 [compound 46, (2S,5S)-5-(4-chlorobenzyl)-4-(1-(5-fluoropyrimidin-2-yl)piperidin-4-yl)-2-methylmorpholine 2,2,2-trifluoroacetate]	1000 to 10000 nM
Cc1ccnc(N2CCC(N3C[C@H](C)OC[C@@H]3Cc3ccc(Cl)cc3)CC2)c1C#N [compound 47, 2-(4-((2S,5S)-5-(4-chlorobenzyl)-2-methylmorpholino)piperidin-1-yl)-4-methyl-nicotinonitrile 2,2,2-trifluoroacetate]	100 to 1000 nM
